Laboratory results published in patent US20040152710A1, “Use of norepinephrine reuptake modulators for preventing and treating vasomotor symptoms” (priority 2002, published 2004).
Where two headings read alike, the source gives them in different places.

What was measured:
[1] = test system: naloxone-induced flush in morphine-dependent ovariectomized rats; test: Morphine-dependent rat model of hot flush (naloxone-induced flush, MD model); details: for ED50 value, abatement of naloxone-induced flush / effect on naloxone-induced flush at maximal flush (dose response) / effect on naloxone-induced flush at maximal flush: 1 hour prior to naloxone; for ED50 value, abatement of naloxone-induced flush: maximal flush 15 minutes post-naloxone; for ED50: Rattus norvegicus, read-out: ED50 value, abatement of naloxone-induced flush; for effect on naloxone-induced flush at maximal flush (dose response): 15 minutes post-naloxone; for changes in TST over time, effect on naloxone-induced flush: various doses; for effect on naloxone-induced flush at maximal flush: 30 mg/kg intraperitoneally
Description: (§3) Dosing: All doses were prepared based on mg/kg.
(§4) Animals: Ovariectomized Sprague-Dawley rats (180-220 g) were obtained from a commercial vendor (Taconic, Germantown, N.Y.) and individually housed under 12 hours light/dark cycle in a room maintained at 25° C. Animals were provided with standard rat chow and water ad libitum.
Morphine-dependent model: Ovariectomized rats were injected once daily for 8-9 days with vehicle to minimize stress responses and then administered compound(s) on test day. On day 4 of dosing, morphine dependence was induced by sc implantation of two slow-release morphine pellets (75 mg/pellet) in the dorsal scapular region. […] Four to six days after implantation, morphine withdrawal was induced with an opioid antagonist (naloxone) that causes a transient increase in TST. […] Rats were mildly sedated with ketamine and a thermistor connected to a MacLab data acquisition system was taped to the base of the tail. Tail skin temperature was then monitored continuously for 35 minutes to establish a baseline temperature. Naloxone was subsequently administered and TST was measured for an additional 35 to 60 minutes (total recording time 70 to 95 minutes).
Statistical analysis: To analyze changes in TST induced by naloxone in morphine-dependent rats, all data were analyzed using a two factor repeated measure ANOVA for “treatment” and “time.” The model was fit to test whether there were significant differences in the responses between treatment groups. Naloxone administration is designated as time zero and data is then analyzed at 5 minute intervals. The first three readings were averaged and used as baseline TST scores. All data were analyzed as ΔTST (TST for each time point-baseline). Multiple comparisons (LSD p-values) among the treatment groups at each time point were used for the analysis. Efficacy of hot flush abatement was determined by evaluating statistical differences at the peak response time of 15 minutes post-nalbxone, when the maximal change in TST is observed. A customized SAS-excel (SAS Institute, Cary, N.C.) application was used applying a four parameter logistic model to determine ED50 values. A logistic dose transformation was performed on ΔTST. Maximum flush (ΔTST at 15 minutes post-naloxone) was used in the analysis and the minimum was locked at zero. […] Statisticians in the Biometrics Department (Wyeth Research, Collegeville, Pa.) developed a customized JMP application.

hSERT = biological target: T1, hSERT (Homo sapiens, UniProt P31645); test: Serotonin (5-HT) uptake assay in JAR cells; format: cell-based; details: for hSERT % specific 5-HT uptake: at 1 μM
T1 construct: cells were stimulated with staurosporine (40 nM) to increase the expression of the 5-HT transporter; host or cells: JAR (human placental choriocarcinoma)
Description: (§1) Cells were plated at 300,000/T75 flask and cells were split twice weekly. […] Cells were plated at 250,000 cells/T75 flask and split twice weekly.
The methods for 5-HT functional reuptake using the JAR cell line were modified using a previous literature report. […] On day 2, cells were stimulated with staurosporine (40 nM) to increase the expression of the 5-HT transporter. On day 3, cells were removed from the cell incubator two hours prior to assay and maintained at room temperature to equilibrate the growth medium to ambient oxygen concentration. Subsequently, the growth medium was replaced with 200 μl of assay buffer (25 mM HEPES; 120 mM NaCl; 5 mM KCl; 2.5 mM CaCl2; 1.2 mM MgSO4; 2 mg/ml glucose (pH 7.4, 37° C.)) containing 0.2 mg/ml ascorbic acid and 10 μM pargyline. […] Data from these wells were used to define non-specific 5-HT uptake (minimum 5-HT uptake). Test compounds were prepared in DMSO (10 mM) and diluted in assay buffer according to test range (1 to 1,000 nM). Twenty-five microliters of assay buffer (maximum 5-HT uptake) or test compound were added directly to triplicate wells containing cells in 200 μl of assay buffer. The cells were incubated with the compound for 10 minutes (37° C.). […] The cells were incubated with the reaction mixture for 5 minutes at 37° C. The 5-HT uptake reaction was terminated by decanting the assay buffer. The cells were washed twice with 200 μl assay buffer (37° C.) to remove free radioligand. The plates were inverted and left to dry for 2 minutes, then reinverted and air-dried for an additional 10 minutes. Subsequently, the cells were lysed in 25 μl of 0.25 N NaOH (4° C.) then placed on a shaker table and shaken vigorously for 5 minutes. After cell lysis, 75 μl of scintillation cocktail was added to the wells, the plates were sealed with film tape and replaced on the shake table for a minimum of 10 minutes. The plates were counted in a Wallac Microbeta counter (PerkinElmer) to collect the raw cpm data.
(§2) For each experiment, a data stream of cpm values collected from the Wallac Microbeta counter was downloaded to a Microsoft Excel statistical application program. Determination of percent specific NE uptake (% SB) at 1 μM are calculated using a Microsoft Excel spread sheet applying the following formula: [% SB of NE reuptake (% SB)=[(1−(mean cpm control wells−each cpm drug well)/(mean cpm control wells−mean cpm non-specific wells))×100]. Calculations of EC50 values were made using the transformed-both-sides logistic dose response program written by Wyeth Biometrics Department.

human hNET = biological target: T2, human hNET (Homo sapiens, UniProt P23975); test: Norepinephrine (NE) uptake assay in MDCK-Net6 cells; format: cell-based; details: for hNET % Specific NE uptake: at 1 μM
T2 construct: expressed in transfected cells
Description: as §1
On day 1, cells were plated at 3,000 cells/well in growth medium and maintained in a cell incubator (37° C., 5% CO2). On day 2, growth medium was replaced with 200 μl of assay buffer (25 mM HEPES; 120 mM NaCl; 5 mM KCl; 2.5 mM CaCl2; 1.2 mM MgSO4; 2 mg/ml glucose (pH 7.4, 37° C.)) containing 0.2 mg/ml ascorbic acid and 10 μM pargyline. Plates containing cells with 200 μl of assay buffer were equilibrated for 10 minutes at 37° C. prior to addition of compounds. […] Data from these wells were used to define non-specific NE uptake (minimum NE uptake). Test compounds were prepared in DMSO (10 mM) and diluted in assay buffer according to test range (1 to 10,000 nM). Twenty-five microliters of assay buffer (maximum NE uptake) or test compound were added directly to triplicate wells containing cells in 200 μl of assay buffer. The cells in assay buffer with test compounds were incubated for 20 minutes at 37° C. […] The reaction was terminated by decanting the supernatant from the plate. The plates containing cells were washed twice with 200 μl assay buffer (37° C.) to remove free radioligand. The plates were then inverted, left to dry for 2 minutes, then reinverted and air dried for an additional 10 minutes. The cells were lysed in 25 μl of 0.25 N NaOH solution (4° C.), placed on a shake table and vigorously shaken for 5 minutes. After cell lysis, 75 μl of scintillation cocktail was added to each well and the plates were sealed with film tape. The plates were returned to the shake table and vigorously shaken for a minimum of 10 minutes to ensure adequate partitioning of organic and aqueous solutions. The plates were counted in a Wallac Microbeta counter (PerkinElmer) to collect the raw cpm data.
as §2

[2] = test system: tail skin temperature of ovariectomized rats; test: OVX-induced thermoregulatory dysfunction telemetry model
Description: as §3, §4
A temperature and physical activity transmitter (PhysioTel TA10TA-F40, Data Sciences International) was implanted subcutaneously in the dorsal scapular region and the tip of the temperature probe was tunneled subcutaneously 2.5 cm beyond the base of the tail. After a 7-day recovery period, TST readings were continuously recorded for the remainder of the study. Tail skin temperature readings were collected from each animal every 5 minutes with values obtained over a 10 second sampling period. The day before test day, an average baseline TST value was calculated for each animal by averaging temperature readings recorded during the 12 hours active (dark) phase. In these studies, animals were dosed approximately 1 hour prior to the onset of dark cycle.
Evaluation of a compound's ability to restore normal lowering of TST in the telemetry model was analyzed using hourly TST values calculated for each animal by averaging the 12 temperature readings obtained every 5 minutes over that recording time. To analyze ΔTST in the telemetry model, a two factors repeated measure ANOVA was performed. The model used for analysis was ΔTST=GRP (group)+HR (hours)+GRP*HR+BASELINE. Thus, the reported least squares means are the expected mean values as if both groups had the same baseline value. Post-hoc tests of hourly GRP*HR samples are t-tests of the difference between groups for each hour. To be conservative, a result was not considered significant unless the p-value was <0.025. All analyses were performed using SAS PROC MIXED (SAS, Carey, N.C.).

[3] = [3H]5-HT uptake, JAR cells, read-out: hSERT EC50

T1 sequence (P31645 whole entry): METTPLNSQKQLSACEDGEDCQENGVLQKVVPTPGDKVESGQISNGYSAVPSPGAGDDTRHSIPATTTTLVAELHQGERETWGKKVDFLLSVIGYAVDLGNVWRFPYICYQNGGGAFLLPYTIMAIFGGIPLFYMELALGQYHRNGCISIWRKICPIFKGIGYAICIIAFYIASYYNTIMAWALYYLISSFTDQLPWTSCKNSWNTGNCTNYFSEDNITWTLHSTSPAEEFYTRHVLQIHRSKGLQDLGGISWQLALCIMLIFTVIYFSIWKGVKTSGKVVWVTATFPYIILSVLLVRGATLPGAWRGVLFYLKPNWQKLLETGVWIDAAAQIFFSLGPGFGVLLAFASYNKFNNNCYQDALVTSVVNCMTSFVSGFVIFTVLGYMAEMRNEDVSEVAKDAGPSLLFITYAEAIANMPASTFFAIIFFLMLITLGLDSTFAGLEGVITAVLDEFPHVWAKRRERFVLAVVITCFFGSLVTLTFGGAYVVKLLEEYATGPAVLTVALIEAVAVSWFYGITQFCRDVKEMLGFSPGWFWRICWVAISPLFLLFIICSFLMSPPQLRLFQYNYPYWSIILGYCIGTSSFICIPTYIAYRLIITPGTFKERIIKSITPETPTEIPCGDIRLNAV
T2 sequence (P23975 whole entry): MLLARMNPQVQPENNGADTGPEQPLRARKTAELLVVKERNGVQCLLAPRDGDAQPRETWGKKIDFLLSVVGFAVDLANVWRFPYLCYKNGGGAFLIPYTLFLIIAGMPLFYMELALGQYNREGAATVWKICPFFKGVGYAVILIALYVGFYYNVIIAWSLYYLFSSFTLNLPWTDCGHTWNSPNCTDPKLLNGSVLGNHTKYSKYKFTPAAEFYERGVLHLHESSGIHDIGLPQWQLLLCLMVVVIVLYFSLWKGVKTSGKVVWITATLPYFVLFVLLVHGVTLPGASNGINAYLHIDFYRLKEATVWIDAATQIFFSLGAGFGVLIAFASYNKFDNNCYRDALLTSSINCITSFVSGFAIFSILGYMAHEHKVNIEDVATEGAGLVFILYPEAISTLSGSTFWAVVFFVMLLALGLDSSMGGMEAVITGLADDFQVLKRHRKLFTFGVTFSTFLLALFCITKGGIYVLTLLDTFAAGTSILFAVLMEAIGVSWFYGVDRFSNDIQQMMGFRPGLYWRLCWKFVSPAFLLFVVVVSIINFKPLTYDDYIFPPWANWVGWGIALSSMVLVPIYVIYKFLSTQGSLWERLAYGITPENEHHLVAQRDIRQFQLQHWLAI

CN(C)C[C@@H](c1ccc(O)cc1)C1(O)CCCCC1 (single isomer, unassigned) [R-ODV, R-enantiomer of O-desmethylvenlafaxine]
ED50 value, abatement of naloxone-induced flush ([1]; sc): 14.4+13 mg/kg

Fc1ccc([C@@H]2CCNC[C@H]2COc2ccc3c(c2)OCO3)cc1 [paroxetine]
ED50 ([1]; sc): 22.3 mg/kg

CNCCC(Oc1ccccc1OC)c1ccccc1 (stereo not drawn) [nisoxetine, reference compound]
EC50 (hSERT): 275 nM

CN(C)C[C@H](c1ccc(O)cc1)C1(O)CCCCC1 (single isomer, unassigned) [S-ODV, S-enantiomer of ODV]
ED50 value, abatement of naloxone-induced flush ([1]; sc): 13.3+8 mg/kg

CNCCC(Oc1ccc(C(F)(F)F)cc1)c1ccccc1 (stereo not drawn) [fluoxetine]
effect on naloxone-induced flush, alone ([1]; fluoxetine 10 mg/kg sc): did not abate the naloxone-induced flush

COc1cccc(C(CN2CCN(c3cccc(Cl)c3)CC2)C2(O)CCCCC2)c1 (stereo not drawn) [1-[2-(3-chlorophenyl)1-piperazinyl]-1-[3-methoxyphenyl)ethyl]cyclohexanol]
hNET % Specific NE uptake (human hNET): 64% | hSERT % specific 5-HT uptake (hSERT): 67%

OC1(C(CN2CCN(c3cccc(Cl)c3)CC2)c2cccc(Cl)c2)CCCCC1 (stereo not drawn) [1-[1-(3-chlorophenyl)-2-[4-(3-chlorophenyl)-1-piperazinyl]ethyl]cyclohexanol]
hNET % Specific NE uptake (human hNET): 23% | hSERT % specific 5-HT uptake (hSERT): 72%

OC1(C(CN2CCN(Cc3ccccc3)CC2)c2cccc(C(F)(F)F)c2)CCCCC1 (stereo not drawn) [1-[2-[4-(phenylmethyl)]-1-piperazinyl]-1-[3-(trifluoromethyl)phenyl]ethyl]cyclohexanol]
hNET % Specific NE uptake (human hNET): 19% | hSERT % specific 5-HT uptake (hSERT): 94%

CN(C)CC(c1ccc(O)cc1)C1(O)CCCCC1 (stereo not drawn) [DVS-233, O-desmethyl-venlafaxine]
changes in TST over time ([2]; 60 mg/kg sc): significantly and transiently decreases TST during the active phase

CCOc1ccccc1OC(c1ccccc1)C1CNCCO1 (stereo not drawn) [reboxetine]
effect on naloxone-induced flush at maximal flush (dose response) ([1]; sc): dose-dependently abates the naloxone-induced flush | changes in TST over time, effect on naloxone-induced flush ([1]; sc): dose-dependently abate the naloxone-induced flush

COc1ccc([C@@H](CN(C)C)C2(O)CCCCC2)cc1 (single isomer, unassigned) [S-venlafaxine, S-enantiomer of venlafaxine]
ED50 value, abatement of naloxone-induced flush ([1]; sc): 10.9+3 mg/kg

COc1cccc(C(CN2CCN(Cc3ccccc3)CC2)C2(O)CCCCC2)c1 (stereo not drawn) [1-[1-(3-methoxyphenyl)-2-[4-phenylmethyl)-1-piperazinyl]ethyl]cyclohexanol]
hNET % Specific NE uptake (human hNET): 43% | hSERT % specific 5-HT uptake (hSERT): 49%

CN1CCN(CC(c2cccc(Cl)c2)C2(O)CCCCC2)CC1 (racemic) [1-[1-(3-chlorophenyl)-2-(4-methyl-1-piperazinyl)ethyl]cyclohexanol]
EC50 (human hNET): 55 nM | changes in TST over time, effect on naloxone-induced flush ([1]; sc): dose-dependently abate the naloxone-induced flush | EC50 (hSERT; [3]): 15500 nM

CNCCCN1c2ccccc2CCc2ccccc21 [desipramine]
abatement of naloxone-induced flush, alone ([1]; 1 mg/kg sc, 40 minutes prior to naloxone): approximately 50% | hot flush abatement ([1]; 3 mg/kg desipramine co-administered with 10 mg/kg SRI): 100% | abatement of naloxone-induced hot flush ([1]; 10 mg/kg sc): 90.4% | abatement of naloxone-induced hot flush ([1]; 30 mg/kg sc): 96.7% | ED50 value of desipramine in the presence of fluoxetine ([1]; co-administered fluoxetine 10 mg/kg sc): did not change | abatement of naloxone-induced flush in combination with atipamezole ([1]; desipramine 1 mg/kg with atipamezole 0.3 mg/kg, sc): additive effect | abatement of naloxone-induced hot flush when SRI co-administered ([1]; desipramine 10 mg/kg with fluoxetine 10 mg/kg): significantly enhanced abatement of naloxone-induced hot flush | reduction of TST compared to vehicle treated rats ([1]; low dose, naloxone-induced hot flush): 50% | effect on naloxone-induced flush at maximal flush (dose response) ([1]; sc): dose-dependently abates the naloxone-induced flush | changes in TST over time ([2]; 10 mg/kg sc): significantly decreases TST over the entire length of the active phase

CN(C)CC(c1cccc(Cl)c1)C1(O)CCCCC1 (stereo not drawn) [WY-781]
effect on naloxone-induced flush at maximal flush [1]: abated the naloxone-induced flush

OC1(C(CN2CCN(Cc3ccccc3)CC2)c2ccc(F)cc2)CCCCC1 (stereo not drawn) [1-[1-(4-fluorophenyl)-2-[4-(phenylmethyl)-1-piperazinyl]ethyl]cyclohexanol]
hNET % Specific NE uptake (human hNET): 53% | hSERT % specific 5-HT uptake (hSERT): 88%

COc1ccc(C(CN(C)C)C2(O)CCCCC2)cc1 (stereo not drawn) [venlafaxine]
ED50 ([1]; sc): 15 mg/kg | effect on elevated naloxone-dependent hot flush induced by atipamezole ([1]; adrenergic α2 receptor antagonist atipamezole given): able to alleviate | changes in TST over time ([2]; 15 mg/kg sc): significantly and transiently decreased TST during the active phase

CN1CCN(CC(c2cccc(F)c2)C2(O)CCCCC2)CC1 (stereo not drawn) [1-[1-(3-fluorophenyl)-2-(4-methyl-1-piperazinyl)ethyl]cyclohexanol]
EC50 (human hNET): 240 nM | hSERT EC50 (hSERT; [3H]5-HT uptake, JAR cells): Inactive at 1 μm

COc1cccc(C(CN2CCN(c3cncc(Cl)n3)CC2)C2(O)CCCCC2)c1 (stereo not drawn) [1-[2-[4-(6-chloro-2-pyrazinyl)-1-piperazinyl]-1-[3-methoxyphenyl)ethyl]cyclohexanol]
hNET % Specific NE uptake (human hNET): 59% | hSERT % specific 5-HT uptake (hSERT): 58%

CCC1(c2cnc[nH]2)Cc2ccccc2C1 [atipamezole]
changes in TST after naloxone, alone ([1]; 0.3 mg/kg sc, 55 minutes prior to naloxone): not significantly different from vehicle treated rats

COc1cccc(C(CN2CCN(c3cccc(C(F)(F)F)c3)CC2)C2(O)CCCC2)c1 (stereo not drawn) [1-[1-(3-methoxyphenyl)-2-[4-[3-(trifluoromethyl)-phenyl]-1-piperazinyl]ethyl]cyclopentanol]
hNET % Specific NE uptake (human hNET): 57% | hSERT % specific 5-HT uptake (hSERT): 82%

COc1ccc([C@H](CN(C)C)C2(O)CCCCC2)cc1 (single isomer, unassigned) [R-venlafaxine, R-enantiomer of venlafaxine]
ED50 value, abatement of naloxone-induced flush ([1]; sc): 8.3+3 mg/kg

COc1cccc(C(CN2CCN(c3cccc(C(F)(F)F)c3)CC2)C2(O)CCCCC2)c1 (stereo not drawn) [1-[1-(3-methoxyphenyl)-2-[4-[3-(trifluoromethyl)-phenyl]-1-piperazinyl]ethyl]cyclohexanol]
hNET % Specific NE uptake (human hNET): 38% | hSERT % specific 5-HT uptake (hSERT): 87%

CN1CCN(CC(c2cccc(C(F)(F)F)c2)C2(O)CCCCC2)CC1 (stereo not drawn) [1-[2-(4-methyl-1-piperazinyl)-1-[3-(trifluoromethyl)-phenyl]ethyl]cyclohexanol]
EC50 (human hNET): 87 nM | EC50 (hSERT; [3]): 33600 nM

CN(C)CC(c1cccc(C(F)(F)F)c1)C1(O)CCCCC1 (stereo not drawn) [WY-867]
effect on naloxone-induced flush at maximal flush [1]: abated the naloxone-induced flush

COc1ccc(C(CN2CCN(C)CC2)C2(O)CCCCC2)cc1 (stereo not drawn) [1-[1-(4-methoxyphenyl)-2-[4-methyl-1-piperazinyl)ethyl]cyclohexanol]
hNET % Specific NE uptake (human hNET): 65% | hSERT % specific 5-HT uptake (hSERT): 79%
